Data: US9018174B2, “Mouse model and treatment of hereditary inclusion body myopathy” (HIBM Research Group, Inc., priority 2008, dated 2015)
Numbering of substitutions follows the chain as printed. Values joined by “and” are separate entries in the source; they are usually repeats but may differ in a detail not shown here. Identical values can stand only once. “Also recorded” adds a separate entry of the source.

What was measured:
cultured cells = conditions: SiaLev or SiaNAz as downstream product; cited from earlier work
PSA-NCAM = assay: Immunoblot with PSA-NCAM antibodies of brain tissue after ManNAc feeding; assay type: in vivo, mouse; conditions: n=14 pre treatment, n=10 post treatment, p=0.08
Description: (§1) Antibodies. A rabbit polyclonal antibody was custom prepared against a GNE/MNK peptide comprising amino acids 588-607: […] (SEQ ID NO:24), coupled to keyhole limpet hemocyanine (KLH) and affinity-purified against the corresponding antigenic peptide (Covance). Other primary antibodies were commercially obtained: dystrophin (ab15277, AbCam), α-dystroglycan (IIH6, Upstate Biotechnology), laminin (L9393, Sigma-Aldrich), podocalyxin (PODX15-A, Alpha Diagnostic International), PSA-NCAM (MAB5324, Chemicon), and β-actin (AAN01, Cytoskeleton).
(§2) Western blotting. Mouse tissues (age P2) were extracted, homogenized in CelLytic buffer, consisting of a mild detergent, bicine buffer and 150 mM NaC (CelLytic) supplemented with protease inhibitors (Complete Minia, Roche). The lysates were sonicated and cleared by centrifugation (1000 g for 10 min), and the resulting supernatants were assayed for protein concentration (BCA protein assay, Pierce). For the neuraminidase enzymatic treatments, protein homogenates (25 μg) were incubated with 1 mU/μg of Neuraminidase (N-6514, Sigma) for 30 min at 37° C. Equal amounts of protein (25-50 μg) were electrophoresed on 4-12% Tris-Glycine gels (Novex, Invitrogen), and electroblotted onto 0.45 μm Hybond ECL nitrocellulose membranes (Amersham Pharmacia Biotech). […]

[1] = test system: GNE-deficient mouse embryonic stem cells; conditions: growth medium supplemented with ManNAc; cited from earlier work
GNE/MNK protein = target: T1, GNE/MNK protein (Mus musculus, UniProt Q91WG8, M712T); assay: Immunoblot with anti-GNE/MNK antibodies of muscle and kidney extracts after ManNAc feeding; assay type: in vivo; conditions: ManNAc treated, referenced to β-actin, untreated -/- 78% decreased
T1 construct: Mouse kidney and skeletal muscle (hindlimb quadriceps) tissues were homogenized; from tissue; host or cells: skeletal muscle and kidney of GNE-M712T knock-in mice (C57BL/6J), age P2
T1 sequence (Q91WG8 1-722 M712T): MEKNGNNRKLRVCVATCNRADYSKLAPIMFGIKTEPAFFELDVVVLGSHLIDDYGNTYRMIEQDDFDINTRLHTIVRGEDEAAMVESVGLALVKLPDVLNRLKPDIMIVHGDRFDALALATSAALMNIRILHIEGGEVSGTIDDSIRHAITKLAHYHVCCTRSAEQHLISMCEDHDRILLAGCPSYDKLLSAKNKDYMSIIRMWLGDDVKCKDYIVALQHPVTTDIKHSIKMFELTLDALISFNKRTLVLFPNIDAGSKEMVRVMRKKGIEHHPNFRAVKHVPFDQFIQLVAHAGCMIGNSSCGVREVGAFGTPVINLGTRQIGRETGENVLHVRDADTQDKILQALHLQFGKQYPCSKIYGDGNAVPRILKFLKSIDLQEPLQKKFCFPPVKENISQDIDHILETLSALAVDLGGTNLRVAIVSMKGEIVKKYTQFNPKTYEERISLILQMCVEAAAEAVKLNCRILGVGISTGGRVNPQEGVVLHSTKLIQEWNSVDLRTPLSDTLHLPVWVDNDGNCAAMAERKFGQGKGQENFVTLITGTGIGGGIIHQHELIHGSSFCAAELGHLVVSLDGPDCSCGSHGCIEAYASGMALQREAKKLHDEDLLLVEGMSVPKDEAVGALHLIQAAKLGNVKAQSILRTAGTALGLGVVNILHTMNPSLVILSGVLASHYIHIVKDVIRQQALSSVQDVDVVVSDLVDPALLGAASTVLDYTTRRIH
Description: as §1, §2

GNE-M712T knock-in mice [2] = assay: Tissue histology and electron microscopy of ManNAc treated -/- mice at P6; assay type: in vivo, mouse; conditions: age P6
Procedure: Mouse Histology. Mouse tissues were collected, formalin-fixed and paraffin-embedded. Tissue sections (5 μm) were prepared and stained with hematoxylin and eosin following standard procedures (American Histolabs) or subjected to immunohostochemistry with a variety of primary antibodies. Formalin fixed tissues were deparafinized in Histoclear II (National Diagnostics), […] in a series of ethanol solutions. Antigen retrieval was performed for sections to be stained with the antibodies GNE/MNK (5 min boiling in citric acid based solution; Vector Laboratories) and dystrophin (boiling in 1 mM EDTA, according the manufacturer's protocol; AbCam). The sections were blocked (2% BSA, 10% donkey serum and 0.1% Triton X-100 in PBS) and incubated with primary antibodies (GNE/MNK 1:50; laminin 1:25; dystrophin 1:50) overnight at 4° C., followed by the secondary antibody Alexa 488 donkey-anti-rabbit (1:500 in blocking solution) (Invitrogen). The sections were mounted in Vectashield (Vector Laboratories) and viewed and digitally imaged with a Zeiss Axiovert 200M microscope (Carl Zeiss, Microimaging).
Electron Microscopy. […] The grids were viewed with a Philips 410 electron microscope (FEI Company) at 80 kV and images were recorded on Kodak SO-163 film (Kodak). […]

GNE-M712T knock-in mice [3] = assay: Rescue of GNE-M712T knock-in mice by ManNAc feeding (survival of homozygous pups); assay type: in vivo, mouse
Procedure: GNE-M712T mice. GNE-M712T knock-in mice were generated by targeting the M712T (ATG>ACG) mutation exon 12 of the murine GNE gene (Uae1, Gne, GenBank NM_015828). The mutant mice were maintained in the C57BL/6J background. Animals were housed in ventilated cages in a temperature- and light-controlled environment (22° C., 30-70% humidity, 12-hour light/12-hour dark cycle) and were fed irradiated chow (Prolab 5P75 Isopro 3000; PMI Nutrition International) and water ad libitum. All euthanasia was performed with by CO2 followed by cervical dislocations. For Mendelian distribution studies, four pregnant mice E17-19 were euthanized and embryos were retrieved by cesarean section and euthanized by decapitation. All mouse procedures were performed in accordance with protocol G04-3 approved by the Institutional Animal […] and Use Committee of the National Human Genome Research Institute, National Institutes of Health Institutional Review Board.
(§3) ManNAc administration. Breeding pairs of 6-week-old +/− mice were divided into three groups. Group I consisted of 9 +/− breeding pairs who were administered untreated sterilized tap water. Group II consisted of one breeding pair of +/+ mice (wild-type control) and 6 +/− breeding pairs who were administered 1 mg/ml ManNAc (Sigma) supplemented water. Group III consisted of one +/+ breeding pair and 7 +/− breeding pairs who were administered 5 mg/ml ManNAc supplemented water. Water was changed twice weekly. Nursing females continued to be supplied with ManNAc. All mice were weaned from ManNAc at 21 days. Selected whole litters were sacrificed at age P2 or P6 for histological, genetic, biochemical or ultrastructural analysis.
Statistical analysis. Differences in genotype distribution (+/+: +/−-−/−) between an untreated control group and ManNAc treated group were tested by a two-tailed Fisher's exact test. To this end a 2×3 table was generated.

podocalyxin = assay: Immunoblot of podocalyxin sialylation in kidney extracts after ManNAc feeding; assay type: in vivo, mouse; conditions: -/- kidneys
Description: as §1, §2

[4] = target: T2, UDP-GlcNAC 2-epimerase (GNE) (Mus musculus, UniProt Q91WG8); assay: GNE/MNK epimerase enzymatic assay on tissue after ManNAc feeding; assay type: in vivo; conditions: +/+ mice, skeletal muscle, age P2, ManNAc treatment, n=3
T2 construct: Mouse kidney and skeletal muscle (hindlimb quadriceps) tissues were homogenized; from tissue; host or cells: skeletal muscle and kidney of GNE-M712T knock-in mice (C57BL/6J), age P2
T2 sequence (Q91WG8 1-722): T1 sequence (Q91WG8 1-722 M712T) with T712M
Procedure: as §3
(§4) GNE/MNK enzymatic assays. Mouse kidney and skeletal muscle (hindlimb quadriceps) tissues were homogenized and subjected to the GNE/MNK epimerase enzymatic assay as described^11,44. This assay is based on incubation with radiolabeled substrate (UDP-[^3H]GlcNAc; American Radiolabeled Chemicals), and detection of radiolabeled product ([^3H]ManNAc) upon separation of oligosaccharides by high pH anion-exchange chromatography with pulsed amperometric detection (Dionex).

[5] = target: T3, UDP-GlcNAC 2-epimerase (GNE) (Mus musculus, UniProt Q91WG8, M712T); assay: as above; assay type: in vivo; conditions: -/- mice, skeletal muscle, age P2, ManNAc treatment, n=7; untreated -/- 19%
T3 construct: Mouse kidney and skeletal muscle (hindlimb quadriceps) tissues were homogenized; from tissue; host or cells: skeletal muscle and kidney of GNE-M712T knock-in mice (C57BL/6J), age P2
T3 sequence (Q91WG8 1-722 M712T): T1 sequence (Q91WG8 1-722 M712T)
Procedure: as §3, §4

[6] = ManNAc 1 g/kg/day to +/- breeding pairs

Row | Compound | incorporation of sialic acid analogs into cell surface glycoconjugates (cultured cells) | increased PSA-NCAM signal compared to untreated -/- tissues (PSA-NCAM) | sialylation of hyposialylated cells [1] | decreased amount of GNE/MNK protein compared to +/+ littermates (GNE/MNK protein) | abnormalities in liver, heart and skeletal muscle tissues (GNE-M712T knock-in mice [2]) | kidney histology (GNE-M712T knock-in mice [2]) | surviving homozygous mice beyond age P3 (GNE-M712T knock-in mice [3]; 1 mg/ml ManNAc in drinking water during matings of +/- mice, 51 offspring) | homozygous pups surviving beyond P3, % of total -/- pups (GNE-M712T knock-in mice [3]; 5 mg ManNAc/ml in drinking water) [%] | number of homozygous pups that survived beyond P3 (GNE-M712T knock-in mice [3]; 5 mg ManNAc/ml in drinking water, out of 97 newborn pups) | homozygous mice that survived past P21 (GNE-M712T knock-in mice [3]; 5 mg ManNAc/ml in drinking water, supplementation ceased at P21) | -/- offspring that survived past P3 (GNE-M712T knock-in mice [3]; [6]) [%] | survivors past P3 that lived past weaning age P21 (GNE-M712T knock-in mice [3]; [6]) [%] | effect on survival of homozygous pups (GNE-M712T knock-in mice [3]; administration of ManNAc to pregnant mothers) | podocalyxin sialylation status (podocalyxin) | GNE activity in +/+ muscle, relative to untreated +/+ set at 100% [4] | residual GNE activity in -/- muscle, relative to untreated +/+ set at 100% [5]
1 | CC(=O)CCC(=O)N[C@@H]1C(O)O[C@H](CO)[C@@H](O)[C@@H]1O (some centres unmarked) [ManLev, N-levulinoylmannosamine] | resulted in incorporation of the downstream sialic acid analogs |  |  |  |  |  |  |  |  |  |  |  |  |  |  | 
2 | CC(=O)N[C@@H]1C(O)O[C@H](CO)[C@@H](O)[C@@H]1O (some centres unmarked) [ManNAc, N-acetylmannosamine] |  | 2-28% | became resialylated | 41 (±3) % | No abnormalities | mildly to remarkably improved histological features; also recorded: mildly to significantly improved kidney histology | did not yield any surviving homozygous mice beyond age P3 | 44 | 11 | Two | 42 | 18 | remarkably salutary effect on survival of homozygous pups | did not result in a statistically significant increase | 114 (±10) % and ~114% | 31 (±9) % and 31%
3 | [N-]=[N+]=NCC(=O)N[C@@H]1C(O)O[C@H](CO)[C@@H](O)[C@@H]1O (some centres unmarked) [ManNAz, N-azidoacetylmannosamine] | resulted in incorporation of the downstream sialic acid analogs |  |  |  |  |  |  |  |  |  |  |  |  |  |  | 
